Publication PMC4627230, “Identification of TAX2 peptide as a new unpredicted anti-cancer agent” (Oncotarget, 2015)

What was measured:
[1] = system: B16F1 melanoma tumor in C57BL/6 mice; assay: Subcutaneous B16F1 melanoma allograft: tumor volume and necrosis; assay type: in vivo, mouse; conditions: 10 mg/kg i.p. days 3, 5, 7
Method: For the subcutaneous melanoma tumor model, suspensions of B16F1 cells (2.5 × 10^5 cells in 100 μL RPMI-1640 medium) were subcutaneously injected into the left flank of different randomized series of syngeneic C57BL/6 mice (n = 8–10 per group), as previously described. Intraperitoneal administrations of peptide (10 mg/kg mouse weight) or controls (physiological serum 0.9% (w/v) NaCl or a scrambled peptide) were performed at days 3, 5 and 7. In human pancreatic carcinoma xenograft experiments, 3 × 10^6 MIA PaCa-2 cells/mouse were implanted subcutaneously into the left flank of BALB/C athymic nude mice, then TAX2 intraperitoneal treatments (10 mg/kg mouse weight) were performed 3 times a week during 4 weeks starting at day 10 after tumor cells inoculation. Tumor volume was determined according to v = 0.5 A × B^2, where A denotes the largest dimension of the tumor and B represents the smallest dimension. At days indicated, mice were sacrificed and tumors were surgically extracted and fixed in 4% paraformaldehyde for further morphologic studies and for magnetic resonance imaging, or frozen for immunohistochemistry. Mice were also weighed every 2–3 days and daily checked for any modification in their behavior. Loss of 15% body weight was an indication for euthanasia as well as severe tumor necrosis, as it was sometimes associated with skin ulceration that would result in loss of body fluid and/or infection.
Histological analysis of formaldehyde-fixed and paraffin-embedded tumors were performed on hemalun, phloxin and saffron (HPS) stained 3 μm thick sections prepared using routine histological methods. To assess tumor-associated microvessel density (MVD), CD31 immunostaining was performed on 5 μm thick cryosections using biotin-labeled secondary antibody and streptavidin-HRP AEC detection system (Microm Microtech, Francheville, France), followed by hematein counter-coloration. Negative controls were done omitting the primary antibody. The necrotic part relative to total tumor surface for each tumor slice as well as MVD were quantified using ImageJ software.
Tumors were studied by magnetic resonance imaging (MRI) for visualization of tumor necrosis when the subcutaneous allografts reached a diameter of about 0.8 cm (day 12). […] Image treatment, segmentation, tri-dimensional reconstruction and quantification were performed using ImageJ and Amira 5.4.3 (Visualization Sciences Group, Burlington, MA, USA) software.
Animals were anesthetized by isoflurane (Forene, Abbott France, Rungis, France) inhalation (3% for induction and 1–1.5% for maintenance) and then after placed in a carbon fibers bed. […] Analysis of reconstructed images and quantification of the vascular network were performed using Amira 5.4.3 software.

[2] = system: immobilized TSP-1 (thrombospondin from human platelets); assay: ELISA binding of biotin-labeled peptides to immobilized TSP-1; conditions: biotin-labeled peptide 10 μg/mL, 3 h, room temperature, 0.5% BSA; absorbance 450 nm; n = 3 in triplicate
Method: (§1) Microtiter plates (Nunc, ThermoFisher Scientific, Courtaboeuf, France) were coated overnight at 4°C with 0.5 μg TSP-1 in sodium carbonate-bicarbonate (BupH) buffer (Thermo Fisher Scientific). Plates were washed with PBS 0.1% BSA (Sigma-Aldrich) and non-specific sites were saturated during 30 min using 1% (w/v) BSA in BupH buffer. Biotin-labeled peptide (10 μg/mL, determined after dose-response assay from 0.01 to 100 μg/mL) was added in buffer containing 0.5% (w/v) BSA and incubated for 3 h at room temperature. Non-labeled peptide (0.001 to 5 mg/mL) was used as selective competitor. Plates were washed with PBS containing 0.1% (w/v) BSA and treated for 30 min with mouse anti-biotin antibody. Bound antibody was quantified using the mouse IgG Elite Vectastain ABC kit (Vector Laboratories) followed by incubation with 1-Step Turbo TMB substrate as a chromogen (ThermoFisher Scientific). The reaction was stopped with 0.5 M H2SO4 and absorbance was read at 450 nm.

[3] = system: immobilized TSP-1 (thrombospondin from human platelets); assay: ELISA competition by unlabeled TAX2; assay type: binding; conditions: biotinylated TAX2 10 μg/mL; unlabeled competitor 0.001 to 5 mg/mL
Method: as §1

CEVSQLLKGDAC (disulfide) [TAX2, CD47-derived cyclic disulfide dodecapeptide …]
large central necrotic area inside tumor masses (MRI and μCT) [1]: large central necrotic area inside tumor masses | median tumor volume, melanoma ([1]; early stages (day 12, caliper), n = 54): No significant modification | increase of necrotic area vs control (HPS staining) ([1]; p < 0.05): about 3 fold | tumor necrosis at day 20 ([1]; photographs): substantial tumor necrosis | binding to immobilized TSP-1 [2]: binds to immobilized TSP-1 | competition with biotinylated TAX2 for TSP-1 binding [3]: Competitive binding occurred in a dose-dependent fashion
